US20090018134A1, “Compounds - 945” (AstraZeneca AB, priority 2007, published 2009)

These compounds were tested against T1, mTOR (Homo sapiens, UniProt P42345) (assay: In Vitro mTOR Kinase Assay (Echo), Test (a)(ii)). Details: table of enzyme assay Test (a)(ii); read-out: Test (a)(ii) IC50.
T1 construct: FLAG; made in house
Format: biochemical
Summary of the method: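 Inhibition expressed as IC50 from an AlphaScreen read-out: phospho-T389 p70 S6K antibody plus streptavidin donor/protein A acceptor beads, left overnight in the dark. The kinase reaction ran 2 h at room temperature, then was stopped with EDTA. Enzyme: FLAG-purified mTOR 1362-2549 fragment from stable HEK293 cells.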

T1 sequence (P42345 1362-2549): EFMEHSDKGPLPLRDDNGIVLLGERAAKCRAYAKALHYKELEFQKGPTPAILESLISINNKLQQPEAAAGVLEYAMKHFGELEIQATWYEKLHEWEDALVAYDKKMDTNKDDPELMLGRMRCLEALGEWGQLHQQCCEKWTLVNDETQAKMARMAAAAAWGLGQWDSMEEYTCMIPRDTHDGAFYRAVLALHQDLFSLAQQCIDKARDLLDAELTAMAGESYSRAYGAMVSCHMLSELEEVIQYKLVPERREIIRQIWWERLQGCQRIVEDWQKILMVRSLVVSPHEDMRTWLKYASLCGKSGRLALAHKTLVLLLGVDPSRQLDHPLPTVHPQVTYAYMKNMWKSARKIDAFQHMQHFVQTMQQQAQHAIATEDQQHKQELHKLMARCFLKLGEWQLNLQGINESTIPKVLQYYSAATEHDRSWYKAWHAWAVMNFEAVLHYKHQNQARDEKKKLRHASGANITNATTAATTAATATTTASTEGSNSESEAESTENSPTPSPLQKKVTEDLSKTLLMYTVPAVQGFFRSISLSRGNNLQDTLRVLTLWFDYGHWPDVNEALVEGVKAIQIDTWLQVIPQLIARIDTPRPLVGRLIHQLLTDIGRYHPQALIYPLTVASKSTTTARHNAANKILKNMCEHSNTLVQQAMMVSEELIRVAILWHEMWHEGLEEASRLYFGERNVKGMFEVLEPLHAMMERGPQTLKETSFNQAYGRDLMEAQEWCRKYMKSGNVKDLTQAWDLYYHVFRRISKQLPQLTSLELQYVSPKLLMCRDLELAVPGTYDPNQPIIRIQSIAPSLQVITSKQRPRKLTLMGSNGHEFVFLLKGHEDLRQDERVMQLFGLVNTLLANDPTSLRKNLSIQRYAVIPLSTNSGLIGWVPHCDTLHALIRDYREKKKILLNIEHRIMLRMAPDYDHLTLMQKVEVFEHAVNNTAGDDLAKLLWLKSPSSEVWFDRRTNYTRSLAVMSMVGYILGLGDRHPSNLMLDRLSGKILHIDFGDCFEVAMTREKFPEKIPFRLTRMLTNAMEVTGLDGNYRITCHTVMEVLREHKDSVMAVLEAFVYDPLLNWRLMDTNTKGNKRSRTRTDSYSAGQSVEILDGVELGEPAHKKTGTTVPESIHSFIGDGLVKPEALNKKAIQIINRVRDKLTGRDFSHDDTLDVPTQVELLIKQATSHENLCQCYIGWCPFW

Structure (SMILES)	IC50
C[C@H]1COCCN1c1cc(C2(S(=O)(=O)C3CC3)CCCC2)nc(-c2ccc(NC(=O)NCCCO)cc2)n1 [Example 36m, 1-[4-[4-(1-cyclopropylsulfonylcyclopentyl)-6-[(3S)-3-methylmorpholin-4-yl]pyrimidin-2-yl]phenyl]-3-(3-hydroxypropyl)urea]	34.7 nM
Cc1csc(S(=O)(=O)C2(c3cc(N4CCOC[C@@H]4C)nc(-c4ccc(NC(=O)NCc5ncc[nH]5)cc4)n3)CC2)n1 [Example 36n, 3-(1H-imidazol-2-ylmethyl)-1-[4-[4-[(3S)-3-methylmorpholin-4-yl]-6-[1-[(4-methyl-1,3-thiazol-2-yl)sulfonyl]cyclopropyl]pyrimidin-2-yl]phenyl]urea]	24.8 nM
Cc1csc(S(=O)(=O)C2(c3cc(N4CCOC[C@@H]4C)nc(-c4ccc(NC(=O)NCCC#N)cc4)n3)CC2)n1 [Example 36o, 3-(2-cyanoethyl)-1-[4-[4-[(3S)-3-methylmorpholin-4-yl]-6-[1-[(4-methyl-1,3-thiazol-2-yl)sulfonyl]cyclopropyl]pyrimidin-2-yl]phenyl]urea]	3.58 nM
Cc1csc(S(=O)(=O)C2(c3cc(N4CCOC[C@@H]4C)nc(-c4ccc(NC(=O)Nc5ncns5)cc4)n3)CC2)n1 [Example 36p, 1-[4-[4-[(3S)-3-methylmorpholin-4-yl]-6-[1-[(4-methyl-1,3-thiazol-2-yl)sulfonyl]cyclopropyl]pyrimidin-2-yl]phenyl]-3-(1,2,4-thiadiazol-5-yl)urea]	1.61 nM
Cc1csc(S(=O)(=O)C2(c3cc(N4CCOC[C@@H]4C)nc(-c4ccc(NC(=O)NC5(CO)CC5)cc4)n3)CC2)n1 [Example 36q, 3-[1-(hydroxymethyl)cyclopropyl]-1-[4-[4-[(3S)-3-methylmorpholin-4-yl]-6-[1-[(4-methyl-1,3-thiazol-2-yl)sulfonyl]cyclopropyl]pyrimidin-2-yl]phenyl]urea]	88.9 nM
CS(=O)(=O)C1(c2cc(N3CCOCC3)nc(-c3ccc(NC(=O)NCCC#N)cc3)n2)CC1 [Example 36r, 3-(2-cyanoethyl)-1-[4-[4-(1-methylsulfonylcyclopropyl)-6-morpholin-4-ylpyrimidin-2-yl]phenyl]urea]	7.33 nM
CS(=O)(=O)C1(c2cc(N3CCOCC3)nc(-c3ccc(NC(=O)Nc4ncns4)cc3)n2)CC1 [Example 36s, 1-[4-[4-(1-methylsulfonylcyclopropyl)-6-morpholin-4-ylpyrimidin-2-yl]phenyl]-3-(1,2,4-thiadiazol-5-yl)urea]	4.75 nM
CS(=O)(=O)C1(c2cc(N3CCOCC3)nc(-c3ccc(NC(=O)NCc4ncc[nH]4)cc3)n2)CC1 [Example 36t, 3-(1H-imidazol-2-ylmethyl)-1-[4-[4-(1-methylsulfonylcyclopropyl)-6-morpholin-4-ylpyrimidin-2-yl]phenyl]urea]	194 nM
CCS(=O)(=O)C1(c2cc(N3CCOC[C@@H]3C)nc(-c3ccc(NC(=O)NCCC#N)cc3)n2)CC1 [Example 36u, 3-(2-cyanoethyl)-1-[4-[4-(1-ethylsulfonylcyclopropyl)-6-[(3S)-3-methylmorpholin-4-yl]pyrimidin-2-yl]phenyl]urea]	9.22 nM
CCS(=O)(=O)C1(c2cc(N3CCOC[C@@H]3C)nc(-c3ccc(NC(=O)NC4(CO)CC4)cc3)n2)CC1 [Example 36v, 1-[4-[4-(1-ethylsulfonylcyclopropyl)-6-[(3S)-3-methylmorpholin-4-yl]pyrimidin-2-yl]phenyl]-3-[1-(hydroymethyl)cyclopropyl]urea]	467 nM
CCS(=O)(=O)C1(c2cc(N3CCOC[C@@H]3C)nc(-c3ccc(NC(=O)NCc4ncc[nH]4)cc3)n2)CC1 [Example 36w, 1-[4-[4-(1-ethylsulfonylcyclopropyl)-6-[(3S)-3-methylmorpholin-4-yl]pyrimidin-2-yl]phenyl]-3-(1H-imidazol-2-ylmethyl)urea]	110 nM
C[C@H]1COCCN1c1cc(C2(S(=O)(=O)c3ccc(F)cc3)CC2)nc(-c2ccc(NC(=O)NC3(CO)CC3)cc2)n1 [Example 36x, 1-[4-[4-[1-(4-fluorophenyl)sulfonylcyclopropyl]-6-[(3S)-3-methylmorpholin-4-yl]pyrimidin-2-yl]phenyl]-3-[1-(hydroxymethyl)cyclopropyl]urea]	182 nM
C[C@H]1COCCN1c1cc(C2(S(=O)(=O)c3ccc(F)cc3)CC2)nc(-c2ccc(NC(=O)NCCC#N)cc2)n1 [Example 36y, 3-(2-cyanoethyl)-1-[4-[4-[1-(4-fluorophenyl)sulfonylcyclopropyl]-6-[(3S)-3-methylmorpholin-4-yl]pyrimidin-2-yl]phenyl]urea]	1.31 nM
C[C@H]1COCCN1c1cc(C2(S(=O)(=O)c3ccc(F)cc3)CC2)nc(-c2ccc(NC(=O)Nc3ncns3)cc2)n1 [Example 36z, 1-[4-[4-[1-(4-fluorophenyl)sulfonylcyclopropyl]-6-[(3S)-3-methylmorpholin-4-yl]pyrimidin-2-yl]phenyl]-3-(1,2,4-thiadiazol-5-yl)urea]	2.08 nM
CNC(=S)Nc1ccc(-c2nc(N3CCOC[C@@H]3C)cc(C3(S(=O)(=O)C4CC4)CC3)n2)cc1 [Example 37a, 1-[4-[4-(1-cyclopropylsulfonylcyclopropyl)-6-[(3S)-3-methylmorpholin-4-yl]pyrimidin-2-yl]phenyl]-3-methylthiourea]	26 nM
C[C@H]1COCCN1c1cc(C2(S(=O)(=O)c3ccccc3)CC2)nc(-c2ccc(NC(=S)NCCO)cc2)n1 [Example 37aa, 1-[4-[4-[1-(benzenesulfonyl)cyclopropyl]-6-[(3S)-3-methylmorpholin-4-yl]pyrimidin-2-yl]phenyl]-3-(2-hydroxyethyl)thiourea]	5.67 nM
C[C@H]1COCCN1c1cc(C2(S(=O)(=O)c3ccncc3)CC2)nc(-c2ccc(NC(=S)NCCO)cc2)n1 [Example 37ad, 3-(2-hydroxyethyl)-1-[4-[4-[(3S)-3-methylmorpholin-4-yl]-6-(1-pyridin-4-ylsulfonylcyclopropyl)pyrimidin-2-yl]phenyl]thiourea]	2.63 nM
C[C@H]1COCCN1c1cc(C2(S(=O)(=O)c3ccncc3)CC2)nc(-c2ccc(NC(=S)NC3CC3)cc2)n1 [Example 37ae, 3-cyclopropyl-1-[4-[4-[(3S)-3-methylmorpholin-4-yl]-6-(1-pyridin-4-ylsulfonylcyclopropyl)pyrimidin-2-yl]phenyl]thiourea]	9.52 nM
CNC(=S)Nc1ccc(-c2nc(N3CCOC[C@@H]3C)cc(C3(S(=O)(=O)c4ccncc4)CC3)n2)cc1 [Example 37af, 3-methyl-1-[4-[4-[(3S)-3-methylmorpholin-4-yl]-6-(1-pyridin-4-ylsulfonylcyclopropyl)pyrimidin-2-yl]phenyl]thiourea]	23.3 nM
C[C@H]1COCCN1c1cc(C2(S(=O)(=O)c3ccccc3)CC2)nc(-c2ccc(NC(=S)NC(C)(C)CO)cc2)n1 [Example 37ag, 1-[4-[4-[1-(benzenesulfonyl)cyclopropyl]-6-[(3S)-3-methylmorpholin-4-yl]pyrimidin-2-yl]phenyl]-3-(1-hydroxy-2-methylpropan-2-yl)thiourea]	13.4 nM
C[C@H]1COCCN1c1cc(C2(S(=O)(=O)C3CC3)CC2)nc(-c2ccc(NC(=S)NC3CC3)cc2)n1 [Example 37b, 3-cyclopropyl-1-[4-[4-(1-cyclopropylsulfonylcyclopropyl)-6-[(3S)-3-methylmorpholin-4-yl]pyrimidin-2-yl]phenyl]thiourea]	12.4 nM
